Source: ChEMBL document CHEMBL1130571, “Synthesis and evaluation of novel-N-[2-(bis-aryl-methoxy)ethyl-N-aralkyl-,-alkanediamines as potent and selective dopamine reuptake inhibitors: Seco analogs of GBR12935 and GBR12909” (Bioorg Med Chem Lett, 1997)
pIC50: −log10 of the molar value. Structures can show the parent of a compound that is named as a salt.

Columns and labels:
[1] = target: Norepinephrine transporter (Rattus norvegicus, UniProt Q9WTR4); experiment: Norepinephrine transporter activity was determined by the ability of compound to inhibit the neurotransmitter norepinephrine-NE reuptake system using [3H]norepinephrine as radioligand
Norepinephrine transporter, sequence (Q9WTR4 whole entry): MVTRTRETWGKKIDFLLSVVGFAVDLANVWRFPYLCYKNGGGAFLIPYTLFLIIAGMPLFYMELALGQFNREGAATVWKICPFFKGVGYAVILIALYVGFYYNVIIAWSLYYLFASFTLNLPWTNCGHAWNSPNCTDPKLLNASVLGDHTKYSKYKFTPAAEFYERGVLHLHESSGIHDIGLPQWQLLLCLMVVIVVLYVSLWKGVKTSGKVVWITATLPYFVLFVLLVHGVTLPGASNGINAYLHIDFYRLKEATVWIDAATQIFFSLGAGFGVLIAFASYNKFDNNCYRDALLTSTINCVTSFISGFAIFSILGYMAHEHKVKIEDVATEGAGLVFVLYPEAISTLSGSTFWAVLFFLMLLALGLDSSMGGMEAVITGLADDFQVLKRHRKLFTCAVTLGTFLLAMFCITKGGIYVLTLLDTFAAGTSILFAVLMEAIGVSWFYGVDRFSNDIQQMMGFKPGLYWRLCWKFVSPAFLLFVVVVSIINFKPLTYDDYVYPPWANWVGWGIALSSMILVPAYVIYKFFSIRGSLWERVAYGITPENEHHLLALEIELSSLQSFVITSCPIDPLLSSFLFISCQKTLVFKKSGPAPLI

[2] = target: Sodium-dependent dopamine transporter (Rattus norvegicus, UniProt P23977); experiment: Compound was tested for its ability to inhibit the neurotransmitter dopamine-DA reuptake system using [3H]dopamine as radioligand
Sodium-dependent dopamine transporter, sequence (P23977 whole entry): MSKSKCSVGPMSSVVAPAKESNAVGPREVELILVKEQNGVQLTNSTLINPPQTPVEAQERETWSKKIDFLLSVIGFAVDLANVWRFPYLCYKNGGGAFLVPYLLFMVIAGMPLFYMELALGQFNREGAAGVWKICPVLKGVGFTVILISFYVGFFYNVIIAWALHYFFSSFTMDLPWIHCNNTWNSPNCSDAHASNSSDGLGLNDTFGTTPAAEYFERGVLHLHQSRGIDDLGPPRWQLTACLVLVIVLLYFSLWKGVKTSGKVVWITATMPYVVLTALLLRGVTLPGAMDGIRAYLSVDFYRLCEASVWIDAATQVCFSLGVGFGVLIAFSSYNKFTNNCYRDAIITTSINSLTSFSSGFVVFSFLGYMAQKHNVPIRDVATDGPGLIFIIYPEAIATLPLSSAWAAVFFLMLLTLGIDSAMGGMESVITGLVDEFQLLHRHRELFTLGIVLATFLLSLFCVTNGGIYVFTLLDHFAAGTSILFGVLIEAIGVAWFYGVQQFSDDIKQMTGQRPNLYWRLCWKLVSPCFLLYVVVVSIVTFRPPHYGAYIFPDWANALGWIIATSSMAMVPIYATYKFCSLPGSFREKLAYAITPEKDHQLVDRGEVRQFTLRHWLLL

[3] = Selectivity of compound towards DA transporter to that of NE transporter
[4] = target: Sodium-dependent serotonin transporter (Rattus norvegicus, UniProt P31652); experiment: Compound was tested for its ability to inhibit the neurotransmitter serotonin-5-HT reuptake system using [3H]5-HT as radioligand
Sodium-dependent serotonin transporter, sequence (P31652 whole entry): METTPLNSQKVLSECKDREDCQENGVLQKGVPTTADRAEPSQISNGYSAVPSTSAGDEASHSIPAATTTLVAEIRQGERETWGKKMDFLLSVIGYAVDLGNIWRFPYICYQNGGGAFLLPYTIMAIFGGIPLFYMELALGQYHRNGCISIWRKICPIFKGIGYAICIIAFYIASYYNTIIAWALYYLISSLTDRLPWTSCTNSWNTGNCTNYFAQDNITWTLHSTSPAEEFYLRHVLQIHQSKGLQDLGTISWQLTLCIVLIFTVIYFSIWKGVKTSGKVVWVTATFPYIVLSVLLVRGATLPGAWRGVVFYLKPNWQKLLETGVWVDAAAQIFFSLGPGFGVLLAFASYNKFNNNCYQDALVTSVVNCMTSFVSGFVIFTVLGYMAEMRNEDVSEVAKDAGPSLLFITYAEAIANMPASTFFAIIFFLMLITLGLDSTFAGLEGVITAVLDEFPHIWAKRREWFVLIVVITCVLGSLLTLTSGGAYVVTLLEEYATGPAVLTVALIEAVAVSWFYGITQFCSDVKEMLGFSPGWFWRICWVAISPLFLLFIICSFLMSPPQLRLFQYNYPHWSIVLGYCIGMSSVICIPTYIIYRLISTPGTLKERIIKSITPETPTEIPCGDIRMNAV

**Q.** With `I/C=C\CN1CCN(CCOC(c2ccccc2)c2ccccc2)CC1` as the compound, how does the pIC50 [1] read?
**A.** The pIC50 was 5.66.

**Q.** What about the pIC50 [2] of the same compound?
**A.** The pIC50 was 6.11.

**Q.** And the Selectivity [3]?
**A.** Its Selectivity is 3.

**Q.** What about the pIC50 [4] of the same compound?
**A.** Its pIC50 is under 5.00.

**Q.** With `I/C=C/CN1CCN(CCOC(c2ccccc2)c2ccccc2)CC1` as the compound, how does the pIC50 [1] read?
**A.** Its pIC50 is under 5.00.

**Q.** What about the pIC50 [2] of the same compound?
**A.** Its pIC50 is 6.30.

**Q.** What about the Selectivity [3] of the same compound?
**A.** The Selectivity was over 20.

**Q.** What about the pIC50 [4] of the same compound?
**A.** The pIC50 was under 5.00.

**Q.** What does the source list for `c1ccc(CCCNCCCNCCOC(c2ccccc2)c2ccccc2)cc1`?
**A.** pIC50 [1]: < 5.00; pIC50 [2]: 6.82; Selectivity [3]: > 65; pIC50 [4]: < 5.00

**Q.** With `c1ccc(CCCNCCNCCOC(c2ccccc2)c2ccccc2)cc1` as the compound, how does the pIC50 [1] read?
**A.** Its pIC50 is under 5.00.

**Q.** And the pIC50 [2]?
**A.** The pIC50 was 5.91.

**Q.** What about the Selectivity [3] of the same compound?
**A.** Its Selectivity is over 8.

**Q.** What about the pIC50 [4] of the same compound?
**A.** The pIC50 was under 5.00.

**Q.** With `Fc1ccc(C(OCCNCCNCCCc2ccccc2)c2ccc(F)cc2)cc1` as the compound, how does the pIC50 [1] read?
**A.** Its pIC50 is under 5.00.

**Q.** And the pIC50 [2]?
**A.** Its pIC50 is 7.31.

**Q.** And the Selectivity [3]?
**A.** The Selectivity was over 200.

**Q.** What about the pIC50 [4] of the same compound?
**A.** Its pIC50 is 6.30.

**Q.** What does the source list for `CN(CCCc1ccccc1)CCN(C)CCOC(c1ccc(F)cc1)c1ccc(F)cc1`?
**A.** pIC50 [1]: < 5.00; pIC50 [2]: 8.00; Selectivity [3]: > 1000; pIC50 [4]: 5.82

**Q.** With `CC(NC(C)(C)C)C(=O)c1cccc(Cl)c1` (stereo not given) [BUPROPION HYDROCHLORIDE] as the compound, how does the pIC50 [2] read?
**A.** The pIC50 was 5.91.
